{"source": "patent US9855245B2", "about": "“Methods for improving lipid profiles using atrasentan” (AbbVie Inc., priority 2013, dated 2018)", "test_system": "subjects with type 2 diabetes and nephropathy", "assay": "Example 2: Phase 2b randomized, double-blind, placebo-controlled 12-week study conducted in Japan", "conditions": "for Weight, LS Mean Change from Baseline (SE): Week 12; for UACR Change from Baseline LS Mean (SE) / UACR Geometric Mean Change (Percent): baseline to final on-treatment measurement", "note": "Values joined by “and” are separate entries in the source; they are usually repeats but may differ in a detail not shown here. Equal values may be shown once. Marks after values point to notes of the source that are not given here.", "data": [{"smiles": "CCCCN(CCCC)C(=O)CN1C[C@H](c2ccc3c(c2)OCO3)[C@@H](C(=O)O)[C@@H]1c1ccc(OC)cc1", "note": "[Atrasentan, (2R,3R,4S)-4-(1,3-benzodioxol-5-yl)-1-[2-(dibutylamino)-2-oxoethyl]-2-(4-methoxyphenyl)pyrrolidine-3-carboxylic acid]", "values": [{"measurement": "Percentage of Subjects with ≧30% Reduction in Log-Transformed UACR from Baseline to Final Measurement", "setting": "0.75 mg/day", "result": 52.6, "unit": "%"}, {"measurement": "Percentage of Subjects with ≧40% Reduction in Log-Transformed UACR from Baseline to Final Measurement", "setting": "0.75 mg/day", "result": 31.6, "unit": "%"}, {"measurement": "Percentage of Subjects with ≧50% Reduction in Log-Transformed UACR from Baseline to Final Measurement", "setting": "0.75 mg/day", "result": 21.1, "unit": "%"}, {"measurement": "Triglycerides, Difference (95% CI) from placebo", "setting": "0.75 mg/day", "result": "−32.9 (−74.44, 8.66) mg/dL"}, {"measurement": "Triglycerides, Final On-Treatment Visit Mean (SD)", "setting": "0.75 mg/day", "result": "148.1 (64.63) mg/dL"}, {"measurement": "Triglycerides, LS Mean Change from Baseline (SE)", "setting": "0.75 mg/day", "result": "−28.8 (50.42) mg/dL"}, {"measurement": "Weight, Difference (95% CI) from placebo", "setting": "0.75 mg/day", "result": "0.1 (−1.13, 1.36) kg"}, {"measurement": "Weight, Final On-Treatment Visit Mean (SD)", "setting": "0.75 mg/day", "result": "69.4 (13.26) kg"}, {"measurement": "fatigue leading to discontinuation", "setting": "0.75 mg/day", "result": 1.7, "unit": "%"}, {"measurement": "geometric mean reduction in UACR, baseline to final on-treatment measurement", "setting": "0.75 mg/day", "result": 31.44, "unit": "%"}, {"measurement": "incidence of peripheral edema", "setting": "0.75 mg/day", "result": 21.1, "unit": "%"}, {"measurement": "mean (non-ambulatory) diastolic blood pressure change from baseline to last on-treatment visit", "setting": "0.75 mg/day", "result": "−5.74", "unit": "mmHg"}, {"measurement": "mean ambulatory diastolic blood pressure change from baseline to Week 10", "setting": "0.75 mg/day", "result": "−6.0", "unit": "mmHg"}, {"measurement": "mean ambulatory systolic blood pressure change from baseline to Week 10", "setting": "0.75 mg/day", "result": "−5.1", "unit": "mmHg"}, {"measurement": "mean duration of edema", "setting": "0.75 mg/day", "result": 38.2, "unit": "days"}, {"measurement": "peripheral edema leading to discontinuation", "setting": "0.75 mg/day", "result": 3.4, "unit": "%"}, {"measurement": "subjects discontinued from the study", "setting": "0.75 mg/day", "result": 10.5, "unit": "%"}, {"measurement": "subjects who discontinued study drug because of adverse events", "setting": "0.75 mg/day", "result": 5.3, "unit": "%"}, {"measurement": "UACR Between-group Comparison Difference (95% CI)", "setting": "0.75 mg/day vs placebo", "result": "−0.41 (−0.69, −0.13)"}, {"measurement": "mean eGFR, difference between atrasentan and placebo", "setting": "0.75 mg/day, Week 10", "result": "statistically significant"}, {"measurement": "Weight, LS Mean Change from Baseline (SE)", "setting": "0.75 mg/day", "result": "0.2 (0.45) kg"}, {"measurement": "UACR Change from Baseline LS Mean (SE)", "setting": "0.75 mg/day", "result": "−0.38 (0.10) log mg/g creatinine"}, {"measurement": "UACR Geometric Mean Change (Percent)", "setting": "0.75 mg/day", "result": "−31.44", "unit": "%"}, {"measurement": "mean (non-ambulatory) systolic blood pressure change from baseline to last on-treatment visit", "setting": "0.75 mg/day, increased", "result": 1.93, "unit": "mmHg"}, {"measurement": "Any adverse event", "setting": "1.25 mg, N = 19", "result": "14 (73.7) N (%) of Subjects"}, {"measurement": "Any adverse event leading to discontinuation of study drug", "setting": "1.25 mg, N = 19", "result": "5 (26.3)* N (%) of Subjects"}, {"measurement": "Death", "setting": "1.25 mg, N = 19", "result": "0 N (%) of Subjects"}, {"measurement": "Fatal adverse event", "setting": "1.25 mg, N = 19", "result": "0 N (%) of Subjects"}, {"measurement": "Possibly or probably drug-related adverse event", "setting": "1.25 mg, N = 19", "result": "10 (52.6) N (%) of Subjects"}, {"measurement": "Serious adverse event", "setting": "1.25 mg, N = 19", "result": "2 (10.5) N (%) of Subjects"}, {"measurement": "Severe adverse event", "setting": "1.25 mg, N = 19", "result": "1 (5.3) N (%) of Subjects"}, {"measurement": "Cholesterol, Difference (95% CI) from placebo", "setting": "1.25 mg/day", "result": "−25.0 (−41.95, −8.04) mg/dL"}, {"measurement": "Cholesterol, Final On-Treatment Visit Mean (SD)", "setting": "1.25 mg/day", "result": "169.6 (37.60) mg/dL"}, {"measurement": "Cholesterol, LS Mean Change from Baseline (SE)", "setting": "1.25 mg/day", "result": "−26.9 (5.41) mg/dL"}, {"measurement": "HDL-C, Difference (95% CI) from placebo", "setting": "1.25 mg/day", "result": "−2.3 (−8.24, 3.73) mg/dL"}, {"measurement": "HDL-C, Final On-Treatment Visit Mean (SD)", "setting": "1.25 mg/day", "result": "46.4 (12.12) mg/dL"}, {"measurement": "HDL-C, LS Mean Change from Baseline (SE)", "setting": "1.25 mg/day", "result": "−4.1 (1.91) mg/dL"}, {"measurement": "Had ≧30% Reduction in UACR and No Edema (no moderate or severe adverse event of edema)", "setting": "1.25 mg/day", "result": "9 (52.9) Number (%) of Subjects"}, {"measurement": "Hemoglobin, Difference (95% CI) from placebo", "setting": "1.25 mg/day", "result": "−1.14 (−1.773, −0.497) g/dL"}, {"measurement": "Hemoglobin, Final On-Treatment Visit Mean (SD)", "setting": "1.25 mg/day", "result": "11.67 (2.300) g/dL"}, {"measurement": "LDL-C, Difference (95% CI) from placebo", "setting": "1.25 mg/day", "result": "−19.7 (−34.02, −5.36) mg/dL"}, {"measurement": "LDL-C, Final On-Treatment Visit Mean (SD)", "setting": "1.25 mg/day", "result": "92.1 (35.00) mg/dL"}, {"measurement": "LDL-C, LS Mean Change from Baseline (SE)", "setting": "1.25 mg/day", "result": "−18.9 (4.57) mg/dL"}, {"measurement": "Percentage of Subjects with ≧30% Reduction in Log-Transformed UACR from Baseline to Final Measurement", "setting": "1.25 mg/day", "result": 64.7, "unit": "%"}, {"measurement": "Percentage of Subjects with ≧40% Reduction in Log-Transformed UACR from Baseline to Final Measurement", "setting": "1.25 mg/day", "result": 64.7, "unit": "%"}, {"measurement": "Percentage of Subjects with ≧50% Reduction in Log-Transformed UACR from Baseline to Final Measurement", "setting": "1.25 mg/day", "result": 52.9, "unit": "%"}, {"measurement": "Triglycerides, Difference (95% CI) from placebo", "setting": "1.25 mg/day", "result": "−16.5 (−58.63, 25.64) mg/dL"}, {"measurement": "Triglycerides, Final On-Treatment Visit Mean (SD)", "setting": "1.25 mg/day", "result": "160.6 (73.37) mg/dL"}, {"measurement": "Triglycerides, LS Mean Change from Baseline (SE)", "setting": "1.25 mg/day", "result": "−12.4 (68.76) mg/dL"}, {"measurement": "Weight, Difference (95% CI) from placebo", "setting": "1.25 mg/day", "result": "0.4 (−0.96, 1.68) kg"}, {"measurement": "Weight, Final On-Treatment Visit Mean (SD)", "setting": "1.25 mg/day", "result": "74.9 (14.51) kg"}, {"measurement": "fatigue leading to discontinuation", "setting": "1.25 mg/day", "result": 3.1, "unit": "%"}, {"measurement": "geometric mean reduction in UACR, baseline to final on-treatment measurement", "setting": "1.25 mg/day", "result": 53.76, "unit": "%"}, {"measurement": "incidence of peripheral edema", "setting": "1.25 mg/day", "result": 31.6, "unit": "%"}, {"measurement": "mean (non-ambulatory) diastolic blood pressure change from baseline to last on-treatment visit", "setting": "1.25 mg/day", "result": "−4.33", "unit": "mmHg"}, {"measurement": "mean (non-ambulatory) systolic blood pressure change from baseline to last on-treatment visit", "setting": "1.25 mg/day", "result": "−2.93", "unit": "mmHg"}, {"measurement": "mean ambulatory diastolic blood pressure change from baseline to Week 10", "setting": "1.25 mg/day", "result": "−6.8", "unit": "mmHg"}, {"measurement": "mean ambulatory systolic blood pressure change from baseline to Week 10", "setting": "1.25 mg/day", "result": "−7.2", "unit": "mmHg"}, {"measurement": "mean duration of edema", "setting": "1.25 mg/day", "result": 54.8, "unit": "days"}, {"measurement": "peripheral edema leading to discontinuation", "setting": "1.25 mg/day", "result": 4.7, "unit": "%"}, {"measurement": "subjects discontinued from the study", "setting": "1.25 mg/day", "result": 26.3, "unit": "%"}, {"measurement": "subjects who discontinued study drug because of adverse events", "setting": "1.25 mg/day", "result": 26.3, "unit": "%"}, {"measurement": "UACR Between-group Comparison Difference (95% CI)", "setting": "1.25 mg/day vs placebo", "result": "−0.80 (−1.09, −0.52)"}, {"measurement": "Weight, LS Mean Change from Baseline (SE)", "setting": "1.25 mg/day", "result": "0.4 kg and 0.4 (0.49) kg"}, {"measurement": "mean eGFR, difference between atrasentan and placebo", "setting": "1.25 mg/day, Weeks 6, 8, and 10", "result": "statistically significant"}, {"measurement": "UACR Change from Baseline LS Mean (SE)", "setting": "1.25 mg/day", "result": "−0.77 (0.10) log mg/g creatinine"}, {"measurement": "UACR Geometric Mean Change (Percent)", "setting": "1.25 mg/day", "result": "−53.76", "unit": "%"}, {"measurement": "mean HDL-C change", "setting": "all treatment groups, changes not clinically meaningful", "result": "decreased slightly"}, {"measurement": "cholesterol and LDL-C, differences from placebo", "setting": "both atrasentan groups (0.75 mg, 1.25 mg)", "result": "statistically significant"}, {"measurement": "hemoglobin relative to placebo", "setting": "both atrasentan groups, at Week 2 and throughout the study", "result": "Statistically significantly mean decreases"}]}]}
